Test results published in US10973936B2, “18F-saccharide-folates” (MERCK & CIE, priority 2011, dated 2021).

Tests used:
[1] = tested on: KB tumor xenografts; experiment: PET imaging of KB tumor xenografts; type: in vivo; settings: for PET images of KB tumor xenografts: 75-105 min p.i.; for specificity of uptake (blocking with folic acid): PET, excess folic acid 10 min prior to radiotracer
Method: PET experiments were performed with Explore VISTA PET/CT tomograph (GE), which provides an ultrahigh resolution of less than 0.9 mm. Animals were lightly restrained and injected with 10-14 MBq of γ-[^18F]-glucose folate (100-150 μL per injection) via a lateral tail vein. […] Animals were anesthetized with isoflurane in an air/oxygen mixture. The PET scans were acquired from 75-105 min post-injection. The fused datasets of PET and CT were analyzed with Amira (Version 4) postprocessing software.

[2] = type: physicochemical; settings: pH 7.4
Method: The distribution coefficient (log D7.4) was determined by the shake flask method. In brief, γ-[^18F]-glucose folate was dissolved in a mixture of phosphate buffer (500 μL, pH 7.4) and n-octanol ([…]) at 20° C. The sample was equilibrated for 15 min in an over-head shaker. The two phases were separated by centrifugation (3 min, 5000 rpm) and 50 μL aliquots were taken from each layer and counted for radioactivity in a γ-counter. The partition coefficient is expressed as the ratio of radioactivity (cpm) in the octanol phase to the one in the PBS phase represents the mean±standard deviation of eight measurements.

[3] = target: T1, folate receptor (Homo sapiens, UniProt P15328); experiment: In vitro binding affinity assay, displacement of 3H-folic acid on KB cells; settings: 3H-folic acid 0.82 nM, 4° C., 30 min; for IC50: three independent experiments, read-out: mean inhibitory concentration of 50% (IC50 value)
T1 construct: endogenous in cells; host or cells: KB cells (human cervical carcinoma), whole-cell suspension
Method: Binding affinity assays were performed with KB cells derived from human cervical carcinoma, where the folate receptor is overexpressed. The cells were cultured as monolayers in 75 cm^2 flasks at 37° C. in a humidified atmosphere (7.5% CO2). The cells were kept in a special folate-deficient RPMI 1640 medium (FFRPMI 1640; Cell Culture Technologies) supplemented with heat-inactivated fetal calf serum (10%), L-glutamine, penicillin (100 IU/mL), and streptomycin ([…]). The fetal calf serum was the only source of folate in the medium, which is reported to provide a final folate concentration of about 3 nmol/mL, which is at the low end of the physiologic serum concentration in humans.
A cell suspension in pure FFRPMI 1640 medium (no additives, ice-cold) was added into 1.5 mL vials (7000 cells in 240 μL). […] After incubation, the suspension was centrifuged at 3500 rpm and 4° C. for 5 min and the supernatant was removed. By addition of 0.5 mL of 1 N NaOH, the cell pellets were resuspended and lysed at the same time. The lysed cells were stirred in a vortex mixer and transferred into scintillation tubes containing 4 mL of scintillation cocktail (Ultima Gold; Perkin Elmer). Radioactivity was measured using a β-counter (LS6500; Beckman), and the inhibitory concentrations of 50% were determined from displacement curves using Graph Pad Prism 4.0 software.

T1 sequence (P15328 25-234): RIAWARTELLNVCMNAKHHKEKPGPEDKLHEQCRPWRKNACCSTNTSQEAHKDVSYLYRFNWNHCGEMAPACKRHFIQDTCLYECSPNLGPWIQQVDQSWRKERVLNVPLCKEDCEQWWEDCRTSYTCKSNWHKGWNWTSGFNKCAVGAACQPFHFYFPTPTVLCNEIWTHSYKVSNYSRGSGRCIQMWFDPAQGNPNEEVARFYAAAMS

| SMILES | PET images of KB tumor xenografts [1] | specificity of uptake (blocking with folic acid) [1] | log D7.4 [2] | Ki [3] | IC50 [3] |
| --- | --- | --- | --- | --- | --- |
| Nc1nc2ncc(CNc3ccc(C(=O)NC(CCC(=O)O)C(=O)NC(Cc4cn(C5OC(CO)C(O)C(O)C5[18F])nn4)C(=O)O)cc3)nc2c(=O)[nH]1 (stereo not drawn) [α-[^18F]-glucose folate] | excellent images of KB tumor xenografts | highly specific and blocked by natural folic acid | −4.20±0.06 | – | – |
| Nc1nc2ncc(CNc3ccc(C(=O)NC(CCC(=O)O)C(=O)NC(Cc4cn(C5OC(CO)C(O)C(O)C5F)nn4)C(=O)O)cc3)nc2c(=O)[nH]1 (stereo not drawn) [α-glucose folate, α-[^19F]-Glucose Folate] | – | – | – | 0.7 ± 0.2 nM | 1.4 ± 0.2 nM |
| Nc1nc2ncc(CNc3ccc(C(=O)NC(CCC(=O)NC(Cc4cn(C5OC(CO)C(O)C(O)C5[18F])nn4)C(=O)O)C(=O)O)cc3)nc2c(=O)[nH]1 (stereo not shown) [γ-[^18F]-glucose folate] | excellent images of KB tumor xenografts | highly specific and blocked by natural folic acid | −4.21±0.14 | – | – |
| Nc1nc2ncc(CNc3ccc(C(=O)NC(CCC(=O)NC(Cc4cn(C5OC(CO)C(O)C(O)C5F)nn4)C(=O)O)C(=O)O)cc3)nc2c(=O)[nH]1 (stereo not shown) [γ-glucose folate, γ-[^19F]-Glucose Folate] | – | – | – | 0.8 ± 0.1 nM | 1.6 ± 0.1 nM |
